# Experimental data published in patent US5786324A, “Synthetic peptides with bactericidal activity and endotoxin neutralizing activity for gram negative bacteria and methods for their use” (priority 1994, dated 1998).
# Where two headings read alike, the source gives them in different places. No end group written: not given here.
# How the values were obtained:
# [1] = test system: Pseudomonas aeruginosa type 1; type: cell-based; conditions: for Effective Dose Bactericidal pH 5.6 P. aeruginosa Molar Concentration: Table 5
# Experimental: Bactericidal activity can be evaluated against a variety of bacteria such as Pseudomonas spp including aeruginosa and P. cepacia, E. coli B, and Staphylococcus aureus. The preferred organism is P. aeruginosa. Bactericidal activity is determined by identifying the effective dose for killing as the molar concentration of the peptide which results in at least a 60% killing of the bacteria, as determined by standard methods. Preferably, the peptide has an effective dose at a concentration of about 1×10^-4 M to about 1×10^-10 M, and more preferably 1×10^-7 M to 1×10^-9M . […] The effective dose for bactericidal activity of B/PI is seen at about […] . Bactericidal activity can also be determined by calculating a lethal dose 50 (LD50) using standard methods. The LD50 is that amount of peptide or protein that kills 50% of the bacteria when measured using standard dose response methods. A bactericidal peptide preferably has an LD50 of about 10^-4 M to about 10^-9 M , more preferably about 10^-7 to 10^-9 M .
# (§1) The synthetically produced peptides were assayed for bactericidal activity against Pseudomonas aeruginosa, type 1, P. cepacia ATCC 25608, E. coli B, and Staphylococcus aureus 502A by standard methods.
# (§2) Pseudomonas aeruginosa type 1 is a clinical isolate maintained in the laboratory since 1972. The isolate remains a smooth strain and was serotyped by the scheme of Homma. Homma, Jpn. J. Exp. Med., 46:329 (1976). A rough strain E. coli B and S. aureus 502A were obtained from Paul Quie, University of Minnesota. The characteristics of the S. aureus strain have been described in Shinefield et al., Amer. J. Dis. Chil., 105:646 (1963). Pseudomonas cepacia ATCC 25608 was purchased from the American Type Culture Collection in 1980. S. aureus and E. coli were maintained on nutrient agar plates and the Pseudomonas strains were maintained on blood agar plates.
# (§3) Pyrogen-free solutions were used throughout this assay and all methods which follow. Log phase bacteria were prepared from a culture in brain heart infusion broth as previously described except that bacteria were washed and resuspended in saline with adjustment to an optical density at 650 nm which would yield 3×10^8 CFU/ml. Bacteria were then diluted 1:10 in 0.08M citrate phosphate buffer, pH 5.6 or pH 7.0, for use in the assay. S. aureus rapidly lost viability in the pH 5.6 buffer and was studied only at pH 7.0. Bactericidal activity was determined by dose response and where an LD50 is indicated, it was determined by linear regression.
# [2] = test system: E. coli B; experiment: Bactericidal assay, E. coli B; type: cell-based
# Experimental: as §1, §2, §3
# [3] = test system: Human lung fibroblasts; experiment: Toxicity for human lung fibroblasts, trypan blue exclusion; type: cell-based; conditions: 30 minutes; for Percent Viability DMEM: DMEM plus 10% FCS; for Percent Viability PBS: pH 7.4
# Experimental: The synthetic peptides were assayed for toxicity to cultured eukaryotic cells. Human lung fibroblasts were grown in monolayers in Dulbecco's Modified Eagles' Medium (DMEM) with 10% fetal calf serum (FCS) and originated as primary cultures of lung mesenchymal cells. The cells were trypsinized, washed with either DMEM plus FCS or phosphate-buffered saline (PBS), pH 7.4, and incubated with peptide at a final cell concentration of 1×10^7 /ml. Nine volumes of cell suspension were diluted with one volume of 0.4% trypan blue and the cells were counted with a hemocytometer, while also determining the fraction of cells which were increased in permeability to dye. There was no significant loss of cell number due to exposure of the fibroblasts to peptide.
# ^a Viability was determined by trypan blue exclusion following
# incubation of cells with peptide for 30 minutes in DMEM plus 10% FCS or i
# [4] = test system: E. coli 055: B5 LPS; experiment: Limulus amoebocyte lysate assay, neutralization of endotoxin; type: biochemical; conditions: for Effective Dose Endotoxin Neutralization (Molar Concentration): Table 8, LAL
# Text: The peptide selected can also have endotoxin neutralizing activity. […] Endotoxin neutralizing activity can also be measured by calculating an inhibitory dose 50 […] using standard does response methods. An inhibitory dose 50 is that amount of peptide that can inhibit 50% of the activity of endotoxin. Endotoxin activity can also be measured by determining the amount of release of tumor necrosis factor alpha (TNFα) from a macrophage cell line or by evaluating the symptoms of shock in animals. Peptides preferably neutralized endotoxin at a molar concentration of about 1×10^-4 M to about 10^-8 M , more preferably about 10^-5 M to about 10^-6 M .
# The ability of synthetic peptides to neutralize endotoxin was detected with the E-TOXATE kit manufactured by Sigma Chemicals, St. Louis, Mo. […] Peptide was incubated with LPS at room temperature for 10 minutes in 100 μl of a 1:2 dilution of pyrogen-free saline, pH 6.4. The reaction was started by addition of 100 μl of amoebocyte lysate and the final volume was 200 μl.
# ^a The dose of peptide required to inhibit clotting of LAL by 100%.
# Each tube contained 0.04 endotoxin units of E. coli LPS.
# [5] = test system: P. cepacia ATCC 25608; experiment: Bactericidal assay, P. cepacia; type: cell-based, Pseudomonas cepacia; conditions: P. cepacia
# Experimental: as §1, §2, §3
# [6] = test system: Staphylococcus aureus 502A; type: cell-based
# Experimental: as §1, §2, §3
# [7] = P. aeruginosa, pH 5.6, 1.2 × 10^-4 M
# [8] = Table 7, dose required to inhibit clotting of LAL by 100%, 0.04 endotoxin units of E. coli LPS
molecule,measurement,setting,value
"CC(C)C[C@H](NC(=O)[C@H](Cc1ccccc1)NC(=O)[C@H](CCCNC(=N)N)NC(=O)[C@H](CCCCN)NC(=O)[C@H](CCC(N)=O)NC(=O)[C@H](C)NC(=O)[C@H](CCCCN)NC(=O)[C@H](Cc1c[nH]c2ccccc12)NC(=O)[C@@H](N)CCCCN)C(=O)N[C@@H](CCCCN)C(=O)O [Peptide 5, kwkaqkrflk]",% Killing of 5 × 10^6 Bacteria,"[1]; type 1, 1.5e-5 M, pH 5.6",75%
same,LD50 for P. aeruginosa,"[1]; type 1, pH 5.6",8.2 µM
same,% Killing of 5 × 10^6 Bacteria,"[2]; E. coli B, pH 5.6, 3.0 × 10^-5 M, listed as #90-99",31%
same,Percent Viability DMEM,[3]; 1.5 × 10^-4 M,98.0%
same,Percent Viability PBS,[3]; 1.5 × 10^-4 M,89.4%
msgnfdlsie [Peptide 29],Effective Dose Bactericidal pH 5.6 P. aeruginosa Molar Concentration,[1]; pH 5.6,-- (not active at concentrations of 1.2 × 10^-4 M or less)
same,Effective Dose Endotoxin Neutralization (Molar Concentration),[4],220 µM
qkrflkmsgn [Peptide 33],Effective Dose Bactericidal pH 5.6 P. aeruginosa Molar Concentration,[1]; pH 5.6,-- (not active at concentrations of 1.2 × 10^-4 M or less)
same,Effective Dose Endotoxin Neutralization (Molar Concentration),[4],450 µM
cnanikisgkwkaqkrflkmsgnfdlsic [Peptide 23],% Killing of 5 × 10^6 Bacteria,"[1]; P. aeruginosa, pH 5.6, 3 × 10^-7 M",67%
same,Effective Dose Bactericidal pH 5.6 P. aeruginosa Molar Concentration,[1]; pH 5.6,3 × 10^-7 M
same,Effective Dose Endotoxin Neutralization (Molar Concentration),[4],30 µM
"EFYSENHHNPKWKAQKRFLK [Peptide 18, efysenhhnpkwkaqkrflk]",% Killing of 5 × 10^6 Bacteria,"[1]; type 1, 3.0e-5 M, pH 5.6",79%
same,Percent Viability DMEM,[3]; 1.5 × 10^-4 M,98.8%
same,Percent Viability PBS,[3]; 1.5 × 10^-4 M,95.6%
sdsflkikhlgkghysfysmdirefq [Peptide 12],% Killing of 5 × 10^6 Bacteria,"[1]; P. aeruginosa, pH 5.6, 1.5 × 10^-5 M",58%
same,Effective Dose Bactericidal pH 5.6 P. aeruginosa Molar Concentration,[1]; pH 5.6,1.5 × 10^-5 M
same,Effective Dose Endotoxin Neutralization (Molar Concentration),[4],75 µM
wkkfkqralk [Peptide 19],% Killing of 5 × 10^6 Bacteria,[1]; [7],65%
same,Effective Dose Bactericidal pH 5.6 P. aeruginosa Molar Concentration,[1]; pH 5.6,1.2 × 10^-4 M
same,"bactericidal activity, fold reduced versus the 90-99 peptide","[1]; pH 5.6, randomized sequence",8 fold
same,Effective Dose Endotoxin Neutralization (Molar Concentration),[4],-- (not active at concentrations of 4.5 × 10^-4 M or less)
"CC(C)C[C@H](NC(=O)[C@H](Cc1ccccc1)NC(=O)[C@H](CCCNC(=N)N)NC(=O)[C@H](CCCCN)NC(=O)[C@H](CCC(N)=O)NC(=O)[C@H](C)NC(=O)[C@H](CCCCN)NC(=O)[C@H](Cc1c[nH]c2ccccc12)NC(=O)[C@H](CCCCN)NC(=O)[C@@H](N)CS)C(=O)N[C@@H](CCCCN)C(=O)O [Peptide 2, ckwkaqkrflk]",% Killing of 5 × 10^6 Bacteria,"[1]; type 1, 1.5e-6 M, pH 5.6",83%
same,% Killing of 5 × 10^6 Bacteria,"[5]; pH 5.6, 1.5 × 10^-5 M",80%
same,% Killing of 5 × 10^6 Bacteria,"[5]; pH 7.0, 1.5 × 10^-5 M",78%
same,% Killing of 5 × 10^6 Bacteria,"[2]; E. coli B, pH 5.6, 1.5 × 10^-5 M, listed as C#90-99",98%
same,% Killing of 5 × 10^6 Bacteria,"[2]; E. coli, pH 7.0, 1.5 × 10^-5 M",90%
same,% Killing of 5 × 10^6 Bacteria,"[6]; 502A, 3e-5 M, pH 7",95%
same,Percent Viability DMEM,[3]; 1.5 × 10^-5 M,98.4%
same,Percent Viability PBS,[3]; 1.5 × 10^-5 M,94.7%
kisgkwkaqkrflkmsgnf [Peptide 35],% Killing of 5 × 10^6 Bacteria,"[1]; P. aeruginosa, pH 5.6, 1.5 × 10^-7 M",58%
same,Effective Dose Bactericidal pH 5.6 P. aeruginosa Molar Concentration,[1]; pH 5.6,1.5 × 10^-7 M
same,Effective Dose Endotoxin Neutralization (Molar Concentration),[4],450 µM
same,neutralization of endotoxin in the LAL (in words),[4]; highest concentration tested 4.5×10^-4 M,did not neutralize endotoxin
"CEFYSENHHNPKWKAQKRFLK [Peptide 17, cefysenhhnpkwkaqkrflk]",% Killing of 5 × 10^6 Bacteria,"[1]; type 1, 3.0e-6 M, pH 5.6",74%
same,% Killing of 5 × 10^6 Bacteria,"[2]; E. coli B, pH 5.6, 3.0 × 10^-5 M",71%
same,Percent Viability DMEM,[3]; 1.5 × 10^-5 M,99.2%
same,Percent Viability PBS,[3]; 1.5 × 10^-5 M,92.3%
cefysenhhnp(g) [Peptide 3],% Killing of 5 × 10^6 Bacteria,[1]; [7],0%
same,% Killing of 5 × 10^6 Bacteria,"[1]; P. aeruginosa, pH 7.0, 1.2 × 10^-4 M",0%
same,Effective Dose Bactericidal pH 5.6 P. aeruginosa Molar Concentration,[1]; pH 5.6,-- (not active at concentrations of 1.2 × 10^-4 M or less)
same,% Killing of 5 × 10^6 Bacteria,"[5]; pH 5.6, 1.2 × 10^-4 M",0%
same,% Killing of 5 × 10^6 Bacteria,"[5]; pH 7.0, 1.2 × 10^-4 M",0%
same,% Killing of 5 × 10^6 Bacteria,"[2]; E. coli, pH 5.6, 1.2 × 10^-4 M",0%
same,% Killing of 5 × 10^6 Bacteria,"[2]; E. coli, pH 7.0, 1.2 × 10^-4 M",0%
same,% Killing of 5 × 10^6 Bacteria,"[6]; S. aureus, pH 7.0, 1.2 × 10^-4 M",0%
same,peptide concentration which neutralized endotoxin (100% inhibition of LPS-induced gelation),[4]; 0.04 endotoxin units of E. coli 055: B5 LPS,120 µM
same,Effective Dose (μg/0.2 ml),[4]; [8],34 μg/0.2 ml
same,Effective Dose M (× 10^-4),[4]; [8],1.2 M (× 10^-4)
same,Effective Dose Endotoxin Neutralization (Molar Concentration),[4],120 µM
isnanikisg [Peptide 30],Effective Dose Bactericidal pH 5.6 P. aeruginosa Molar Concentration,[1]; pH 5.6,-- (not active at concentrations of 1.2 × 10^-4 M or less)
same,Effective Dose Endotoxin Neutralization (Molar Concentration),[4],450 µM
anikisgkwk [Peptide 31],% Killing of 5 × 10^6 Bacteria,"[1]; P. aeruginosa, pH 5.6, 3.0 × 10^-5 M",53%
same,Effective Dose Bactericidal pH 5.6 P. aeruginosa Molar Concentration,[1]; pH 5.6,3.0 × 10^-5 M
same,Effective Dose Endotoxin Neutralization (Molar Concentration),[4],220 µM
flkmsgnfdl [Peptide 34],Effective Dose Bactericidal pH 5.6 P. aeruginosa Molar Concentration,[1]; pH 5.6,-- (not active at concentrations of 1.2 × 10^-4 M or less)
same,Effective Dose Endotoxin Neutralization (Molar Concentration),[4],750 µM
